Measured values: ChEMBL document CHEMBL1201862, “PubChem BioAssay data set” (2004)
Several values for one entry are separate records, joined by “and”; a condition that tells them apart may be missing. Equal values may be shown once.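 Each compound was tested at five concentrations against cells in 96-well plates for 48 hours. GI50: concentration for 50% inhibition of growth.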 Activity calls are given as the source filed them. No stated cut-off is given here; in the data, active = GI50 up to about 1.1 µM and inactive = higher.

How the values were obtained:
Experiment in all cases: growth of human tumour cells (NCI), 48 h
[1] = system: M19-MEL
[2] = system: HOP-18
[3] = system: DMS-114
[4] = system: KM-20L2
[5] = system: LXFL 529
[6] = system: XF498
[7] = system: DLD-1
[8] = system: DMS-273
[9] = system: RXF 631

Row | SMILES | GI50 [1] | GI50 [2] | GI50 [3] | GI50 [4] | GI50 [5] | GI50 [6] | GI50 [7] | GI50 [8] | GI50 [9]
1 | CC(=O)CC(=O)N(CCN(C(=O)CC(C)=O)c1ccccc1)c1ccccc1 | > 100 µM (inactive) | > 100 µM (inactive) | > 100 µM (inactive) | > 100 µM (inactive) | > 100 µM (inactive) | > 100 µM (inactive) | > 100 µM (inactive) |  | 
2 | COC(=O)[C@@]12C(=O)C=CC(=O)[C@@H]1C1C(=CC2COC(C)=O)O[C@@H]2OC3(CCCCC3)O[C@H]12 (stereo not given in full) | 15.5 µM (inactive) | 10.3 µM (inactive) | 4.92 µM (inactive) | 15.2 µM (inactive) | 4.28 µM (inactive) | 13.2 µM (inactive) | 9.68 µM (inactive) | 8.61 µM (inactive) | 21.9 µM (inactive)
3 | CC1=CCCC2C(C=O)(C1)CC(C)C2(CO)CC/C(=C/CO)CO (stereo not given) | > 100 µM (inactive) | > 100 µM (inactive) | > 100 µM (inactive) |  | 79.3 µM (inactive) |  | > 100 µM (inactive) | > 100 µM (inactive) | > 100 µM (inactive)
4 | C\C=C/C=C/C=C/C(=O)O |  | > 100 µM (inactive) | > 100 µM (inactive) | > 100 µM (inactive) | > 100 µM (inactive) |  | > 100 µM (inactive) | > 100 µM (inactive) | 
5 | COc1c(O)c2c3c(c(C)cc(O)c3c1O)C(=O)C(O)(C(C)(C)C(C)=O)C2=O (stereo not given) | 14.7 µM (inactive) and 18.4 µM (inactive) | > 100 µM (inactive) |  | > 100 µM (inactive) | > 100 µM (inactive) | > 100 µM (inactive) | > 100 µM (inactive) | > 100 µM (inactive) | 
6 | O=C(c1ccccc1)C1N=NN(Cc2ccccc2[N+](=O)[O-])C1C(=O)c1ccccc1 (stereo not given) | > 100 µM (inactive) | > 100 µM (inactive) | > 100 µM (inactive) | > 100 µM (inactive) | > 100 µM (inactive) |  | > 100 µM (inactive) | > 100 µM (inactive) | 
7 | CC1(O)CC2C(CC1SC1CC3C(CC1(C)O)C3(C)C)C2(C)C (stereo not given) | 24.9 µM (inactive) | 35.2 µM (inactive) | 48.5 µM (inactive) |  | 52.2 µM (inactive) | 35.1 µM (inactive) | 74.8 µM (inactive) | 41.5 µM (inactive) | 
8 | CC1=C(C(=O)NCc2ccccc2)C(c2ccc(Cl)c(Cl)c2)C(C(=O)NCc2ccccc2)=C(C)N1 | > 100 µM (inactive) |  | > 100 µM (inactive) | > 100 µM (inactive) | > 100 µM (inactive) | > 100 µM (inactive) | > 100 µM (inactive) | > 100 µM (inactive) | 
9 | Clc1ccc(OCc2nnc3n2N=C(c2ccccc2)CS3)cc1 | 16.9 µM (inactive) |  |  | 15.2 µM (inactive) | 13.6 µM (inactive) | 17.1 µM (inactive) | 16.5 µM (inactive) | 16 µM (inactive) | 14 µM (inactive)
10 | Cc1cccc(C)c1NC(=O)CCC(=O)/N=C(\N)NC#N | > 100 µM (inactive) | > 100 µM (inactive) | > 100 µM (inactive) | > 100 µM (inactive) | > 100 µM (inactive) | > 100 µM (inactive) | > 100 µM (inactive) |  | > 100 µM (inactive)
11 | O=C1C2C(C(=O)N1c1ccccc1)C1([N+](=O)[O-])C=C3c4ccccc4N(C(=O)c4ccccc4)C32C2C(=O)N(c3ccccc3)C(=O)C21 (stereo not given) | > 100 µM (inactive) |  | > 100 µM (inactive) |  | > 100 µM (inactive) | > 100 µM (inactive) | > 100 µM (inactive) | > 100 µM (inactive) | > 100 µM (inactive)
12 | O=C1/C(=C/c2ccc(Cl)c(Cl)c2)CNC/C1=C\c1ccc(Cl)c(Cl)c1 | 22.3 µM (inactive) | 33.7 µM (inactive) |  | 7.4 µM (inactive) | 3.97 µM (inactive) | 19.5 µM (inactive) | 1.89 µM (inactive) | 5.73 µM (inactive) | 36.3 µM (inactive)
13 | COc1cc2c(c(OC)c1OC)-c1ccc(OC)c(=O)cc1C(NC(=O)COc1ccccc1)CC2 (stereo not given) | < 0.01 µM (active) | > 100 µM (inactive) | < 0.01 µM (active) | < 0.01 µM (active) | < 0.01 µM (active) | < 0.0625 µM (active) | < 0.01 µM (active) | < 0.01 µM (active) | < 0.01 µM (active)
14 | CC(=O)Oc1ccc(Nn2c3ccccc3c3ccccc32)c(C)c1 | 31.9 µM (inactive) | 16.7 µM (inactive) | 27.1 µM (inactive) | 29.4 µM (inactive) | 33.7 µM (inactive) | 27.7 µM (inactive) | 43.9 µM (inactive) | 19.6 µM (inactive) | 
15 | CC(C)N(C(=O)C12C3C4C1C1C2C3C41I)C(C)C (stereo not given) | > 100 µM (inactive) |  | > 100 µM (inactive) |  | > 100 µM (inactive) | > 100 µM (inactive) |  | > 100 µM (inactive) | > 100 µM (inactive)
16 | COC(=O)C1=C(O)c2cc3c(cc2[C@H](c2cc(OC)c(OC)c(OC)c2)C1)OCO3 | 0.478 µM (active) | > 100 µM (inactive) | 41.2 µM (inactive) | 25.3 µM (inactive) | 37.8 µM (inactive) | 25.9 µM (inactive) | 34.6 µM (inactive) | 28.6 µM (inactive) | 54.7 µM (inactive)
17 | CC1CCCC(C(O)CC2CC(=O)N(c3ccccc3)C(=O)C2)C1=O (stereo not given) | > 100 µM (inactive) | > 100 µM (inactive) | > 100 µM (inactive) | > 100 µM (inactive) | > 100 µM (inactive) |  | > 100 µM (inactive) | > 100 µM (inactive) | 
18 | CCN(c1n[n+]2c(-c3ccccc3)csc2s1)c1n[n+]2c(-c3ccccc3)csc2s1 | 33.3 µM (inactive) | > 100 µM (inactive) | 25.9 µM (inactive) | 72.8 µM (inactive) | 50.9 µM (inactive) | 70.6 µM (inactive) | > 100 µM (inactive) | 46.8 µM (inactive) | 
19 | Cc1c(C(=O)/C=C/c2ccccc2)[n+]([O-])c2ccccc2[n+]1[O-] | 15.7 µM (inactive) | 18.7 µM (inactive) | 10.2 µM (inactive) | 18 µM (inactive) | 13 µM (inactive) | 11.9 µM (inactive) | 14.2 µM (inactive) | 15.8 µM (inactive) | 
20 | N#CC1=C(Cl)NC(Cl)=C(C#N)C1c1ccc(Cl)cc1 |  | 17.6 µM (inactive) | 15.2 µM (inactive) | 24.6 µM (inactive) | 16.4 µM (inactive) | 14.1 µM (inactive) | 17.7 µM (inactive) | 17.1 µM (inactive) | 13 µM (inactive)
21 | COc1ccc(Cc2cc(OC)c(OC)c(OC)c2)cc1O | 0.0861 µM (active) |  | 0.127 µM (active) | 51.6 µM (inactive) | 0.82 µM (active) | 4.73 µM (inactive) | 0.207 µM (active) | 0.0713 µM (active) | 25.2 µM (inactive)
22 | CN1C(=O)C(=CN(C)c2ccccc2)C(=O)N(C)C1=O | 49.2 µM (inactive) | 69.8 µM (inactive) | 57.7 µM (inactive) | > 100 µM (inactive) | > 100 µM (inactive) | > 100 µM (inactive) | > 100 µM (inactive) | > 100 µM (inactive) | 
23 | COC(=O)c1c[nH]c2nc(N3CCOCC3)nn2c1=O | > 100 µM (inactive) |  | > 100 µM (inactive) | > 100 µM (inactive) |  |  |  | > 100 µM (inactive) | 
24 | Fc1cccc(/C=N/C23CC4CC(CC(C4)C2)C3)c1 | > 100 µM (inactive) | > 100 µM (inactive) | > 100 µM (inactive) | > 100 µM (inactive) | > 100 µM (inactive) | > 100 µM (inactive) | > 100 µM (inactive) | > 100 µM (inactive) | 
25 | COc1ccc(C2ON(c3cccc(C)n3)CC=C2C)cc1 (stereo not given) | 34.6 µM (inactive) | > 100 µM (inactive) | 40.7 µM (inactive) | 47.1 µM (inactive) | 37.2 µM (inactive) | 38.3 µM (inactive) | 35.7 µM (inactive) | 26.1 µM (inactive) | 48.2 µM (inactive)
26 | CC1(Cl)CC(C)(/C=C/Cl)C(Cl)CC1Cl (stereo not given) | 18.7 µM (inactive) |  |  | 13.2 µM (inactive) | 14.7 µM (inactive) | 14.4 µM (inactive) | 16.7 µM (inactive) |  | 12.8 µM (inactive)
27 | CCOc1ccccc1NC(=O)C1=C(C)NC(C)=C(C(=O)Nc2ccccc2OCC)C1c1cccc([N+](=O)[O-])c1 | > 100 µM (inactive) |  | 46.3 µM (inactive) | 89.1 µM (inactive) | 24 µM (inactive) | 17.7 µM (inactive) | 46.8 µM (inactive) | 72.1 µM (inactive) | 
